In ChEMBL document CHEMBL4261544, “Structure-metabolism-relationships in the microsomal clearance of piperazin-1-ylpyridazines” (Medchemcomm, 2017):

Experiments:
[1] = Extraction ratio in human liver microsomes at 10 uM in presence of NADPH by LC-MS/MS analysis; assay type: ADME, microsome; conditions: read-out: ERH
[2] = Half life in mouse liver microsomes at 10 uM in presence of NADPH by LC-MS/MS analysis; assay type: ADME, microsome; conditions: for half-life at 10 µM: liver microsomes
[3] = Extraction ratio in mouse liver microsomes at 10 uM in presence of NADPH by LC-MS/MS analysis; assay type: ADME, microsome; conditions: read-out: ERH
[4] = Half life in human liver microsomes at 10 uM in presence of NADPH by LC-MS/MS analysis; assay type: ADME, microsome; conditions: for half-life at 10 µM: liver microsomes
[5] = Metabolic stability in mouse liver microsomes assessed as parent compound remaining at 10 uM in presence of NADPH after 60 mins by LC-MS/MS analysis; assay type: ADME, microsome; conditions: 1 h
[6] = Metabolic stability in human liver microsomes assessed as parent compound remaining at 10 uM in presence of NADPH after 60 mins by LC-MS/MS analysis; assay type: ADME, microsome; conditions: 1 h
[7] = Drug metabolism in human liver microsomes assessed as 6-(4-(o-tolylsulfonyl)piperazin-1-yl)pyridazine-3-carboxamide formation at 10 uM in presence of NADPH after 60 mins by LC-MS/MS analysis; assay type: ADME, microsome; conditions: 1 h
[8] = Drug level in mouse liver microsomes treated with N-benzyl-6-(4-(o-tolylsulfonyl)piperazin-1-yl)pyridazine-3-carboxamide at 10 uM in presence of NADPH after 60 mins by LC-MS/MS analysis; assay type: ADME, microsome; conditions: 1 h
[9] = Drug level in human liver microsomes treated with N-benzyl-6-(4-(o-tolylsulfonyl)piperazin-1-yl)pyridazine-3-carboxamide at 10 uM in presence of NADPH after 60 mins by LC-MS/MS analysis; assay type: ADME, microsome; conditions: 1 h
[10] = Drug metabolism in mouse liver microsomes assessed as oxidation at benzene ring D at 10 uM in presence of NADPH after 30 to 60 mins by LC-MS/MS analysis; assay type: ADME, microsome
[11] = Drug metabolism in mouse liver microsomes assessed as oxidation at benzene ring C at 10 uM in presence of NADPH after 30 to 60 mins by LC-MS/MS analysis; assay type: ADME, microsome
[12] = Drug metabolism in mouse liver microsomes assessed as oxidation at benzene ring B at 10 uM in presence of NADPH after 30 to 60 mins by LC-MS/MS analysis; assay type: ADME, microsome
[13] = Drug metabolism in mouse liver microsomes assessed as oxidation at benzene ring A at 10 uM in presence of NADPH after 30 to 60 mins by LC-MS/MS analysis; assay type: ADME, microsome
[14] = Aqueous solubility in pH 7.4 PBS buffer; assay type: physicochemical

SMILES	hepatic extraction ratio at 10 µM [1]	half-life at 10 µM [2] [min]	hepatic extraction ratio at 10 µM [3]	half-life at 10 µM [4] [min]	further results
Cc1ccccc1S(=O)(=O)N1CCN(c2ccc(C(=O)NCc3ccc(F)cc3)nn2)CC1	0.56	26	0.7	34	–
Cc1ccccc1S(=O)(=O)N1CCN(c2ccc(C(=O)NCc3ccccc3)nn2)CC1	0.93	–	0.97	–	t1/2 ([2]; microsomes, 10 µM): 2 min; Stability [5]: 42%; Stability [6]: 62%; Drug metabolism [7]: Metabolite_Notdetected; t1/2 ([4]; microsomes, 10 µM): 3 min
Cc1ncccc1S(=O)(=O)N1CCN(c2ccc(C(=O)NCc3ccc(F)cc3)nn2)CC1	–	8	–	–	–
O=C(NCc1ccc(F)cc1)c1ccc(N2CCN(S(=O)(=O)c3cccnc3Cl)CC2)nn1	–	13	–	–	–
Cc1ccccc1S(=O)(=O)N1CCN(c2ccc(C(=O)NCc3cccs3)nn2)CC1	0.92	2	0.97	4	–
O=C(NCc1ccccc1)c1ccc(N2CCN(S(=O)(=O)c3ccccc3Cl)CC2)nn1	0.89	2	0.97	5	–
Nc1ncccc1S(=O)(=O)N1CCN(c2ccc(C(=O)NCc3ccc(F)cc3)nn2)CC1	–	19	–	–	–
Cc1ccccc1S(=O)(=O)N1CC2(CN(c3ccc(C(=O)NCc4ccc(F)cc4)nn3)C2)C1	0.97	2	0.98	1	–
Cc1cc(F)ccc1S(=O)(=O)N1CCN(c2ccc(C(=O)NCc3ccc(F)cc3)nn2)CC1	–	15	0.8	–	–
Cc1nc(C(F)(F)F)ccc1S(=O)(=O)N1CCN(c2ccc(C(=O)NCc3ccc(F)cc3)nn2)CC1	–	23	–	–	–
O=C(NCc1ccccc1)c1ccc(N2CCC(S(=O)(=O)c3cccc(Cl)c3Cl)CC2)nn1	0.61	20	0.75	27	–
Cc1ccccc1S(=O)(=O)N1CCN(c2ccc(C(N)=O)nn2)CC1	–	–	–	–	Drug metabolism [8]: Metabolite_Detected; Drug metabolism [9]: Metabolite_Detected
O=C(NCc1ccc(F)cc1)c1ccc(N2CCN(S(=O)(=O)c3ccccc3C(F)(F)F)CC2)nn1	–	31	0.66	–	Drug metabolism [10]: Metabolite_Detected; Drug metabolism [11]: Metabolite_Detected; Drug metabolism [12]: Metabolite_Detected; Drug metabolism [13]: Metabolite_Notdetected
Cc1ccccc1S(=O)(=O)N1CC=C(c2ccc(C(=O)NCc3ccc(F)cc3)nn2)CC1	0.96	5	0.94	2	–
N#Cc1ncccc1S(=O)(=O)N1CCN(c2ccc(C(=O)NCc3ccc(F)cc3)[n+]([O-])n2)CC1	–	16	–	–	–
O=C(NCc1ccc(F)cc1)c1ccc(N2CCN(S(=O)(=O)c3cccnc3O)CC2)nn1	–	72	–	–	–
Cc1ccccc1S(=O)(=O)N1CCN(c2ccc(C(=O)NCc3cncs3)nn2)CC1	0.59	18	0.77	30	–
O=C(NCc1ccc(F)cc1)c1ccc(N2CCN(S(=O)(=O)c3cccnc3N3CCOCC3)CC2)nn1	–	2	–	–	–
O=C(NCc1ccccc1)c1ccc(N2CCN(S(=O)(=O)c3cccc(Cl)c3Cl)CC2)nn1	0.73	14	0.81	16	–
Cc1ccc(F)cc1S(=O)(=O)N1CCN(c2ccc(C(=O)NCc3ccc(F)cc3)nn2)CC1	0.78	68	0.47	12	solubility [14]: Insoluble
O=C(NCc1ccc(F)cc1)c1ccc(N2CC3(C2)CN(S(=O)(=O)c2cccnc2Cl)C3)nn1	0.29	113	–	0.35	–
O=C(NCc1ccc(F)cc1)c1ccc(N2CCN(S(=O)(=O)c3cccnc3C3CC3)CC2)nn1	–	6	–	–	–
Cc1ccccc1S(=O)(=O)N1CCN(c2cnc(C(=O)NCc3ccc(F)cc3)cn2)CC1	0.95	3	0.95	2	–
O=C(NCc1ccc(F)cc1)c1ccc(N2CCN(S(=O)(=O)c3ccc(F)cc3C(F)(F)F)CC2)nn1	–	12	0.84	–	Drug metabolism [10]: Metabolite_Detected; Drug metabolism [11]: Metabolite_Detected; Drug metabolism [12]: Metabolite_Detected; Drug metabolism [13]: Metabolite_Notdetected
N#Cc1ncccc1S(=O)(=O)N1CCN(c2ccc(C(=O)NCc3ccc(F)cc3)nn2)CC1	–	5	–	–	–
